US20240216462A1, “PHARMACEUTICAL COMPOSITION FOR ENHANCING IMMUNITY OR ANTI-CANCER ACTIVITY INCLUDING EXTRACT OF PSEUDOLYSIMACHION NAKAIANUM (OHWI) T.YAMAZ AS ACTIVE INGREDIENT” (KOREA INSTITUTE OF SCIENCE AND TECHNOLOGY, priority 2022, published 2024)

Experiments:
[1] = test system: CD4+ T cells induced to differentiate into Th17; assay: Differentiation and functional enhancement activity of Th17 cells (IL-17 expression); type: cell-based, C57BL/6J mice; conditions: 25 μM final concentration; culture for 3 days under Th17 differentiation conditions; Veh control about 35%
Excerpt: 8-week-old C57BL/6J mice were purchased and adapted for 1 week, and then CD4+ T cells were isolated from spleens and lymph nodes. Th17 cell differentiation was induced by media containing IL-6, TGF-beta1, IL-1beta, anti-IFN-gamma, and anti-IL-4, and through culturing for 3 days, it was confirmed that about 35% of IL-17 cytokine was expressed in a Veh group, which was a control group treated with only a solvent of the compound, thereby establishing basic conditions for the differentiation of Th17 cells. Under the conditions of differentiation of Th17 cells, each substance was treated at a final concentration of 25 μM.
As a result, as may be seen in the drawings, it was confirmed that Compounds 1 to 3 increased the IL-17 cytokine expression by 70%, 63%, and 62%, respectively, and through this, it was confirmed that the three compounds were able to improve the differentiation and function of Th17 cells.

[2] = test system: CD4+ T cells induced to differentiate into Treg; assay: Differentiation and function of Treg cells (Foxp3 expression); type: cell-based, C57BL/6J mice; conditions: 25 μM final concentration; culture for 3 days in medium containing IL-2 and TGF-beta1; control about 19%
Description: • 8-week-old C57BL/6J mice were purchased and adapted for 1 week, and then CD4+ T cells were isolated from spleens and lymph nodes. Differentiation of regulatory T cells was transferred through a medium containing IL-2 and TGF-beta1, and through culture for 3 days, it was confirmed that about 19% of a Foxp3 transcription factor was expressed in the control group. Each substance was treated at a final concentration of 25 μM.

SMILES: CO[C@@H]1C[C@H]2[C@H](OC(=O)c3ccc(O)c(O)c3)[C@@H]3O[C@]3(CO)[C@H]2C(O[C@@H]2O[C@H](CO)[C@@H](O)[C@H](O)[C@H]2O)O1 (stereo partly drawn) [Compound 1, veroninakaioside G]
- increased the IL-17 cytokine expression [1]: 70%
- reduced the Foxp3 transcription factor expression [2]: 4.4%

SMILES: COc1ccc(CCO[C@@H]2O[C@H](CO)[C@@H](OC(=O)/C=C/c3ccc(O)c(OC)c3)[C@H](O[C@@H]3O[C@H](CO)[C@@H](O)[C@H](O)[C@H]3O)[C@H]2O[C@@H]2O[C@H](CO)[C@@H](O)[C@H](O)[C@H]2O)cc1O [Compound 2, chionoside I]
- increased the IL-17 cytokine expression [1]: 63%
- reduced the Foxp3 transcription factor expression [2]: 8.3%

SMILES: COc1cc(/C=C/C(=O)OC[C@H]2O[C@@H](OCCc3ccc(O)c(OC)c3)[C@H](O)[C@@H](O[C@@H]3O[C@H](CO)[C@@H](O)[C@H](O)[C@H]3O[C@@H]3O[C@H](CO)[C@@H](O)[C@H](O)[C@H]3O)[C@@H]2O)ccc1O [Compound 3, veroninakaioside H]
- increased the IL-17 cytokine expression [1]: 62%
- reduced the Foxp3 transcription factor expression [2]: 6.6%
